Literature values, collected in patent publication US9434994B2, “Methods for prediction of clinical outcome to epidermal growth factor receptor inhibitors by non-small cell lung cancer patients” (The Regents of the University of Colorado, a body corporate, priority 2004, dated 2016).

System: chemotherapy resistant NSCLC patients
Conditions: single agent; cited from earlier work

For `COc1cc2ncnc(Nc3ccc(F)c(Cl)c3)c2cc1OCCCN1CCOCC1` [gefitinib], the response rates is given as “about 10%”.
